Results reported in ChEMBL document CHEMBL1142810, “Discovery of a potent and selective 5-ht5A receptor antagonist by high-throughput chemistry” (Bioorg Med Chem Lett, 2005).
Blank lines part the entries; values can stand above or below the molecule they belong to.

Tests used:
[1] = biological target: 5-hydroxytryptamine receptor 6 (Homo sapiens, UniProt P50406); assay: Binding affinity towards human 5-hydroxytryptamine receptor 6 expressed in HeLa cells using the radioligand [3H]LSD; assay type: cell-based
Chain of 5-hydroxytryptamine receptor 6 (P50406 whole entry): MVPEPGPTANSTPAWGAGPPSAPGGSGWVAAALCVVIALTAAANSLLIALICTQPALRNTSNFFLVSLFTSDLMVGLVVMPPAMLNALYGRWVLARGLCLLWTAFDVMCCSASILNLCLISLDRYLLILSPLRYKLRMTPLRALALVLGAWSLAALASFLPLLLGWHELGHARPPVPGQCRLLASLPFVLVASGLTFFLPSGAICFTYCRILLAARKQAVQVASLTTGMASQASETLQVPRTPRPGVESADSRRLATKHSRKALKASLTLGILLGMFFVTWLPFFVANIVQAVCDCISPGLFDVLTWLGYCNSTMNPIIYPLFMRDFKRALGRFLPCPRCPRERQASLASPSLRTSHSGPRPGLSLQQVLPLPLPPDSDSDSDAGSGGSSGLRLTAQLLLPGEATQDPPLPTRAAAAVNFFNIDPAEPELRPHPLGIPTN

[2] = biological target: D(3) dopamine receptor (Homo sapiens, UniProt P35462); assay: Binding affinity towards human dopamine receptor D3 expressed in CHO cells using the radioligand [125I]iodosulpiride; assay type: cell-based
Chain of D(3) dopamine receptor (P35462 whole entry): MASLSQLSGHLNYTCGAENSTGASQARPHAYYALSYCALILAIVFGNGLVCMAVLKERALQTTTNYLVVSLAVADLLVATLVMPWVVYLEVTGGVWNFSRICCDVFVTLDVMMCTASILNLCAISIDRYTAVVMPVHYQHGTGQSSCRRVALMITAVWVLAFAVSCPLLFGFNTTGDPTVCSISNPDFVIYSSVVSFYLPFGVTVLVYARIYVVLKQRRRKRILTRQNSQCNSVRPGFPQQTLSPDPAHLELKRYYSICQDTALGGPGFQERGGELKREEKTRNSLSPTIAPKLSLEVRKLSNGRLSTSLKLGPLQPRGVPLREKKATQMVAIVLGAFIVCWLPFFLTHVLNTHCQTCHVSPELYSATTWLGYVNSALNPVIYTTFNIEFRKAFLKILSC

[3] = biological target: T1, 5-hydroxytryptamine receptor 1F (Homo sapiens, UniProt P30939); assay: Binding affinity towards human 5-hydroxytryptamine receptor 1F expressed in HEK 293 cells using the radioligand [3H]5-HT; assay type: cell-based, HEK293
T1 sequence (P30939 whole entry): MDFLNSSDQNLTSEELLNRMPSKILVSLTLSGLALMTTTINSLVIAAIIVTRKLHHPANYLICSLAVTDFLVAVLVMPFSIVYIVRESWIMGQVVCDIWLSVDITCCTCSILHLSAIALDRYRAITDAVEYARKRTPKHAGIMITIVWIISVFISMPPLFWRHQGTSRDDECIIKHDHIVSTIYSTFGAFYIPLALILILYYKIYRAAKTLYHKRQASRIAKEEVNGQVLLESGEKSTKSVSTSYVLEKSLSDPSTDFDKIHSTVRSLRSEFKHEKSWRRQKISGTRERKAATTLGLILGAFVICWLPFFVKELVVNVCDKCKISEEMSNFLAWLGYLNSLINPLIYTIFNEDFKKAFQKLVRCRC

[4] = biological target: T2, 5-hydroxytryptamine receptor 2C (Homo sapiens, UniProt P28335); assay: Binding affinity towards human 5-hydroxytryptamine receptor 2C expressed in HEK 293 cells using the radioligand [3H]mesulergine; assay type: cell-based, HEK293
T2 sequence (P28335 whole entry): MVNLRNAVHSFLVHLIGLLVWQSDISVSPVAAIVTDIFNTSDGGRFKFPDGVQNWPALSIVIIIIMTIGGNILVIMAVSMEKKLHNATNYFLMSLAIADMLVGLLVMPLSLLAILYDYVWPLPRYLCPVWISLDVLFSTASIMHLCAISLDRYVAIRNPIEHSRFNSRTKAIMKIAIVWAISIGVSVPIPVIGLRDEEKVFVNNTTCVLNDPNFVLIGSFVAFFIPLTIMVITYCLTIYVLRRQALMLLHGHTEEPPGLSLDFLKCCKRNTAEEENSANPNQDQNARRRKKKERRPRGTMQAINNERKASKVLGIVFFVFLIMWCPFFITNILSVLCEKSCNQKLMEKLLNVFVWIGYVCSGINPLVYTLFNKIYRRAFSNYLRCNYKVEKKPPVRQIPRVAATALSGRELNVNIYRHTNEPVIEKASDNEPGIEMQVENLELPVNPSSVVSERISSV

[5] = biological target: T3, Alpha-1B adrenergic receptor (Homo sapiens, UniProt P35368); assay: Binding affinity towards human alpha-1B-adrenergic receptor expressed in CHO cells using the radioligand [3H]prazosin; assay type: cell-based
T3 sequence (P35368 whole entry): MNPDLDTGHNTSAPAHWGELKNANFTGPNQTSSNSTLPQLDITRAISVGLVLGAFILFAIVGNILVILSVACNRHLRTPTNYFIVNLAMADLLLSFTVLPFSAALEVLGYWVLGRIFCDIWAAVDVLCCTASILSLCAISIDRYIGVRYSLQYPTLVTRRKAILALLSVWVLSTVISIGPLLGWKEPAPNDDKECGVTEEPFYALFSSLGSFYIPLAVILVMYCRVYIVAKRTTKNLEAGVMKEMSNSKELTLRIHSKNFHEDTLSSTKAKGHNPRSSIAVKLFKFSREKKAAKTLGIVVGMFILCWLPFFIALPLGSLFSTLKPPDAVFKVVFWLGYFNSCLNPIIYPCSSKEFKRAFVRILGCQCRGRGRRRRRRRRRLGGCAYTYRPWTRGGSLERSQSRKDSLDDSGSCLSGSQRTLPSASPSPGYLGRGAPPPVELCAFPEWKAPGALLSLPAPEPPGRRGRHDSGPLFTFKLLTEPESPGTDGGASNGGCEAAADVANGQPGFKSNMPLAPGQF

[6] = biological target: T4, D(4) dopamine receptor (Homo sapiens, UniProt P21917); assay: Binding affinity towards human dopamine receptor D4 expressed in CHO cells using the radioligand [125I]iodosulpiride; assay type: cell-based
T4 sequence (P21917 whole entry): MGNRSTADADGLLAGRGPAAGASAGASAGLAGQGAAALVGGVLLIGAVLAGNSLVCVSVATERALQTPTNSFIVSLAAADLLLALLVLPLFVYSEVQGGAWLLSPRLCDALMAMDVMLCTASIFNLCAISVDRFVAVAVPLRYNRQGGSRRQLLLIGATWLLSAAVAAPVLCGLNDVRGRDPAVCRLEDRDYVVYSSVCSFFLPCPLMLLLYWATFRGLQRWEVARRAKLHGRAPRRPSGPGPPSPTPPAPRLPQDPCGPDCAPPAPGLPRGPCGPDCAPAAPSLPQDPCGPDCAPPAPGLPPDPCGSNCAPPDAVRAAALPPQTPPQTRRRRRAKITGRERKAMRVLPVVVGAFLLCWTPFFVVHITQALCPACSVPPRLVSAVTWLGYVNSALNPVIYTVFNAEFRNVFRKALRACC

[7] = biological target: D(2) dopamine receptor (Homo sapiens, UniProt P14416); assay: Binding affinity towards human dopamine receptor D2 expressed in CHO cells using the radioligand [125I]iodosulpiride; assay type: cell-based
Chain of D(2) dopamine receptor (P14416 whole entry): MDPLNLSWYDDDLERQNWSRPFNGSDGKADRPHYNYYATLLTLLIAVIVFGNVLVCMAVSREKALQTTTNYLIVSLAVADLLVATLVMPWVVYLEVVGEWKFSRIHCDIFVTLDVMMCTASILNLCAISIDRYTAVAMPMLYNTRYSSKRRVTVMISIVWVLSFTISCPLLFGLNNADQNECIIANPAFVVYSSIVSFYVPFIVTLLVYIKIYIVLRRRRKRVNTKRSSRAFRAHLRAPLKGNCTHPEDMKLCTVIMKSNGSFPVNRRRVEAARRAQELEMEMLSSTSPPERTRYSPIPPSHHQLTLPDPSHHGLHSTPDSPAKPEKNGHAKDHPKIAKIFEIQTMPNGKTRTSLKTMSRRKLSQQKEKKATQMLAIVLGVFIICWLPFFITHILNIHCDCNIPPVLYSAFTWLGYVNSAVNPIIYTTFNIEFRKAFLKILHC

[8] = biological target: 5-hydroxytryptamine receptor 7 (Homo sapiens, UniProt P34969); assay: Binding affinity towards human 5-hydroxytryptamine receptor 7 expressed in HEK 293 cells using the radioligand [3H]5-CT; assay type: cell-based, HEK293
Chain of 5-hydroxytryptamine receptor 7 (P34969 whole entry): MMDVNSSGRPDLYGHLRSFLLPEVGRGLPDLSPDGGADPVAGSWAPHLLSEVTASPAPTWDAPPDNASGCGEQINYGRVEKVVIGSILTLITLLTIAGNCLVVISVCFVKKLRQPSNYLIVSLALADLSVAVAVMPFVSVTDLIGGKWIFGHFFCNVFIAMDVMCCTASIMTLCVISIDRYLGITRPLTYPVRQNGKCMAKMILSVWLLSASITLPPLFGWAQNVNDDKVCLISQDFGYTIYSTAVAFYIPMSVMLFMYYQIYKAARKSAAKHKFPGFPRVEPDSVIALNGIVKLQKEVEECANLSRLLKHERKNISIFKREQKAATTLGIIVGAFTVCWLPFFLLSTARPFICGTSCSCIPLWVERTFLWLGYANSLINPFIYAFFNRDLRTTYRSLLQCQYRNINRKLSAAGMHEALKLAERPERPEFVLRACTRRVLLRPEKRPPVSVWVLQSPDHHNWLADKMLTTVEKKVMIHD

[9] = biological target: 5-hydroxytryptamine receptor 1E (Homo sapiens, UniProt P28566); assay: Binding affinity towards human 5-hydroxytryptamine receptor 1E expressed in HEK 293 cells using the radioligand [3H]5-HT; assay type: cell-based, HEK293
Chain of 5-hydroxytryptamine receptor 1E (P28566 whole entry): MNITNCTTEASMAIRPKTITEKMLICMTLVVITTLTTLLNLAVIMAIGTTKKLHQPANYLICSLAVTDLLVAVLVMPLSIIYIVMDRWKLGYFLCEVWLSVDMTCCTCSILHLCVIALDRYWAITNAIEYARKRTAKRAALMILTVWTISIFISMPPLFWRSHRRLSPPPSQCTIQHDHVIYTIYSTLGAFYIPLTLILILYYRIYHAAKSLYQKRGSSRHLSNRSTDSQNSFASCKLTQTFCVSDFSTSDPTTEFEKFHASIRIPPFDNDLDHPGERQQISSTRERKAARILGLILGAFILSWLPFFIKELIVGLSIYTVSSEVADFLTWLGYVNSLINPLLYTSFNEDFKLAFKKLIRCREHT

[10] = biological target: T5, 5-hydroxytryptamine receptor 1A (Homo sapiens, UniProt P08908); assay: Binding affinity towards human 5-hydroxytryptamine receptor 1A expressed in HEK 293 cells using the radioligand [3H]8-OH-DPAT; assay type: cell-based, HEK293
T5 sequence (P08908 whole entry): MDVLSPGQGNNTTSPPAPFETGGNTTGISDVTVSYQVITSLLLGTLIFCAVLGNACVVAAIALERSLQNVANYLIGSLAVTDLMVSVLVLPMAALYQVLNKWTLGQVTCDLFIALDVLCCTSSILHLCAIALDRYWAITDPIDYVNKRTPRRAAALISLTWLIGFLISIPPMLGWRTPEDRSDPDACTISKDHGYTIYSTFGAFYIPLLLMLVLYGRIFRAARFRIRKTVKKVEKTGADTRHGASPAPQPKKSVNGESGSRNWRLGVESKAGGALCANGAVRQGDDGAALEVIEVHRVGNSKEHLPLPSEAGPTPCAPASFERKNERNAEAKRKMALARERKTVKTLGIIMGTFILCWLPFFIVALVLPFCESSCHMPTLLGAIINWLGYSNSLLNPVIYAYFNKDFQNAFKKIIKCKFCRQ

[11] = biological target: 5-hydroxytryptamine receptor 1B (Homo sapiens, UniProt P28222); assay: Binding affinity towards human 5-hydroxytryptamine receptor 1B expressed in CHO cells using the radioligand [3H]5-HT; assay type: cell-based
Chain of 5-hydroxytryptamine receptor 1B (P28222 whole entry): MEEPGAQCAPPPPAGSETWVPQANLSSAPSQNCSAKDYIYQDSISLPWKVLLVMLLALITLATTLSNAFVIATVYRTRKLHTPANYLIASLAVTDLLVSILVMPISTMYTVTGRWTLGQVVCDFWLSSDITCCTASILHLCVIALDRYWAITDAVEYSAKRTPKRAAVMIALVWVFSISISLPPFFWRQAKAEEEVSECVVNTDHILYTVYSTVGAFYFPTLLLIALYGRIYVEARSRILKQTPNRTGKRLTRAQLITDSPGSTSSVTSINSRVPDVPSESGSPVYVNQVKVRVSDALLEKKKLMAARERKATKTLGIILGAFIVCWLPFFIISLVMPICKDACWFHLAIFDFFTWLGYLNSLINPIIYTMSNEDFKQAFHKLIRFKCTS

[12] = biological target: 5-hydroxytryptamine receptor 2A (Homo sapiens, UniProt P28223); assay: Binding affinity towards human 5-hydroxytryptamine receptor 2A expressed in HEK 293 cells using the radioligand [3H]ketanserin; assay type: cell-based, HEK293
Chain of 5-hydroxytryptamine receptor 2A (P28223 whole entry): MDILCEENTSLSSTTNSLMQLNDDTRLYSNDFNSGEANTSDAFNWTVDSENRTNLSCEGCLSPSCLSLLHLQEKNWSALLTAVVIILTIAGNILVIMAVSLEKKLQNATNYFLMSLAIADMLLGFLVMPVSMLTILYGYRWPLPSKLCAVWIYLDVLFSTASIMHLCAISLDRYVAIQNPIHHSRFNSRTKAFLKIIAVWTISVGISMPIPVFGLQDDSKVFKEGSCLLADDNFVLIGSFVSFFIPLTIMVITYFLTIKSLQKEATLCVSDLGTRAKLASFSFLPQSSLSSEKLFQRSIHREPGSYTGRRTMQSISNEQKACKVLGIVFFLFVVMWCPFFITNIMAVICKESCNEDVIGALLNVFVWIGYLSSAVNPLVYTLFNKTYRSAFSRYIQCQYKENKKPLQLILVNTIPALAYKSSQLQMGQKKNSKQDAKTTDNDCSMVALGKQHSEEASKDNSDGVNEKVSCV

[13] = biological target: T6, 5-hydroxytryptamine receptor 5A (Homo sapiens, UniProt P47898); assay: Binding affinity towards human 5-hydroxytryptamine receptor 5A expressed in CHO cells using the radioligand [3H]LSD; assay type: cell-based
T6 sequence (P47898 whole entry): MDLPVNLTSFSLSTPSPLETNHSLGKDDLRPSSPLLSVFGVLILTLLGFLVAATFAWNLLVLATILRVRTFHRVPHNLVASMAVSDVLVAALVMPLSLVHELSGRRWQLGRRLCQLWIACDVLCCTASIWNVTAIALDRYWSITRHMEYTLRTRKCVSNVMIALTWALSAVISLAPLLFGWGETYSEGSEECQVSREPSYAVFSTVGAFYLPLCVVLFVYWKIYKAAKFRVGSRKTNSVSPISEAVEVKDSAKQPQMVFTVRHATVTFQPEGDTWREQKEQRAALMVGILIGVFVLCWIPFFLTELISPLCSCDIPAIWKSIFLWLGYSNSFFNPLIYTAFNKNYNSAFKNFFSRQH

[14] = biological target: 5-hydroxytryptamine receptor 2B (Homo sapiens, UniProt P41595); assay: Binding affinity towards human 5-hydroxytryptamine receptor 2B expressed in HEK 293 cells using the radioligand [3H]5-HT; assay type: cell-based, HEK293
Chain of 5-hydroxytryptamine receptor 2B (P41595 whole entry): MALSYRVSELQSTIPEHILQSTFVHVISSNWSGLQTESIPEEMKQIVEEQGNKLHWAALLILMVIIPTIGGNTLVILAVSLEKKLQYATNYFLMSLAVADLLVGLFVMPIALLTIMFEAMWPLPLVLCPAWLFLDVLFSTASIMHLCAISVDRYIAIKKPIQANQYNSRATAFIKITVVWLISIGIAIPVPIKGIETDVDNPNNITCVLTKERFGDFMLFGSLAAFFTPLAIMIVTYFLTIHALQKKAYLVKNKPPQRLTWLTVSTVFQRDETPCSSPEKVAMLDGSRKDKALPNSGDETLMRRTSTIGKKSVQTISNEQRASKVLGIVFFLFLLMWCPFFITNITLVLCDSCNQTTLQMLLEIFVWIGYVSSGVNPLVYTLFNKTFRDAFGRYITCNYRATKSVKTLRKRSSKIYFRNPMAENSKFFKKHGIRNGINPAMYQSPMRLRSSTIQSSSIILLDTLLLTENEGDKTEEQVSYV

[15] = biological target: 5-hydroxytryptamine receptor 1D (Homo sapiens, UniProt P28221); assay: Binding affinity towards human 5-hydroxytryptamine receptor 1D expressed in CHO cells using the radioligand [3H]5-HT; assay type: cell-based
Chain of 5-hydroxytryptamine receptor 1D (P28221 whole entry): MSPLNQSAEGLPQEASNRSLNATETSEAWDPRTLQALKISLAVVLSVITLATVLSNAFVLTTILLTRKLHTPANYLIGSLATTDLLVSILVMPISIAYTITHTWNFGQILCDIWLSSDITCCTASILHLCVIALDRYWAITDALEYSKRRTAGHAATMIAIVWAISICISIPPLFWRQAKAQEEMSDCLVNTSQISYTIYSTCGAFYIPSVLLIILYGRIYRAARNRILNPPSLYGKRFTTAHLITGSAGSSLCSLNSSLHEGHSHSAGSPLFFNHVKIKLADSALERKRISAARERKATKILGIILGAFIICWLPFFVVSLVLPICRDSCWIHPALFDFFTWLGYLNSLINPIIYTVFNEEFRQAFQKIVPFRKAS

[16] = Peak blood concentration in guinea pig at a dose of 3 mg/kg upon subcutaneous administration; assay type: ADME, organism-based, Cavia porcellus; parameters: dose 3 mg/kg, route subcutaneous; details: sc
[17] = Bioavailability in guinea pig at a dose of 3 mg/kg upon subcutaneous administration; assay type: ADME, organism-based, Cavia porcellus; details: in vivo, sc
[18] = Half life in guinea pig at a dose of 3 mg/kg upon subcutaneous administration; assay type: ADME, organism-based, Cavia porcellus; parameters: dose 3 mg/kg, route subcutaneous; details: in vivo, sc
[19] = biological target: Sodium-dependent serotonin transporter (Homo sapiens, UniProt P31645); assay: Binding affinity towards human serotonin transporter expressed in LLCPK cells using the radioligand [3H]citalopram; assay type: cell-based
Chain of Sodium-dependent serotonin transporter (P31645 whole entry): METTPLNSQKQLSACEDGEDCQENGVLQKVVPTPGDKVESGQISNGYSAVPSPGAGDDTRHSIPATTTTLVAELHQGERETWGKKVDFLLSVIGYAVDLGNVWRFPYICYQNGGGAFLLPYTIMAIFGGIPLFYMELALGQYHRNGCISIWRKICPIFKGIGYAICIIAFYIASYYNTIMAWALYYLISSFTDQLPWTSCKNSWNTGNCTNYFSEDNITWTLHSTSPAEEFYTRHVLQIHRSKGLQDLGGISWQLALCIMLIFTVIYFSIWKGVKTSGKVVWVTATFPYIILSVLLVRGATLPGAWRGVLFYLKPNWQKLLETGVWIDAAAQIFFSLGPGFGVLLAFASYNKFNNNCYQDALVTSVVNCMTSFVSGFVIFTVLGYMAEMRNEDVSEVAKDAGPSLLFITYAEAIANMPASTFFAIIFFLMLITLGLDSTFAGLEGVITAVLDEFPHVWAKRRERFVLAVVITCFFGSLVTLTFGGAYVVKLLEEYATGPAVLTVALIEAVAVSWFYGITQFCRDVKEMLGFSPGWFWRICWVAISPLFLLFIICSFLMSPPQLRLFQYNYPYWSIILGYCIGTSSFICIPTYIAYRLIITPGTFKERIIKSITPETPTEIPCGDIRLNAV

[20] = Volume of distribution in guinea pig at a dose of 1 mg/kg upon intravenous administration; assay type: ADME, organism-based, Cavia porcellus; parameters: dose 1 mg/kg, route intravenous; details: in vivo, read-out: Vdss
[21] = Peak blood concentration in guinea pig at a dose of 3 mg/kg upon oral administration; assay type: ADME, organism-based, Cavia porcellus; parameters: dose 3 mg/kg, route oral
[22] = Bioavailability in guinea pig at a dose of 3 mg/kg upon oral administration; assay type: ADME, organism-based, Cavia porcellus; details: in vivo
[23] = Half life in guinea pig at a dose of 1 mg/kg upon intravenous administration; assay type: ADME, organism-based, Cavia porcellus; parameters: dose 1 mg/kg, route intravenous; details: in vivo
[24] = Blood clearance in guinea pig at a dose of 1 mg/kg upon intravenous administration; assay type: ADME, organism-based, Cavia porcellus; parameters: dose 1 mg/kg, route intravenous
[25] = Half life in guinea pig at a dose of 3 mg/kg upon oral administration; assay type: ADME, organism-based, Cavia porcellus; parameters: dose 3 mg/kg, route oral; details: in vivo
[26] = biological target: T6, 5-hydroxytryptamine receptor 5A; assay: 5-CT-induced stimulation of [35S]GTP-gamma-S, binding to 5-Hydroxytryptamine receptor 5A expressed in HEK 293 cells with compound at 1 uM; assay type: functional, cell-based; details: HEK293

SMILES: CN(C)CCN(Cc1ccc(-c2ccc(CNCCc3ccccc3)cc2)cc1)C(=O)CCC1CCCC1.Cl.Cl
Cmax [16]: 0.388 µg/mL | bioavailability [17]: 63% | half-life [18]: 2.2 h | Ki [19]: 0.0251 µM | Vd [20]: 6.1 L/kg | Cmax [21]: 0.02 µg/mL | bioavailability [22]: 4% | half-life [23]: 3.5 h | clearance [24]: 1.32 L/h/kg | half-life [25]: 3.9 h

SMILES: CN(C)CCN(Cc1ccc(-c2ccc(CNC3Cc4ccccc4C3)cc2)cc1)C(=O)CCC1CCCC1
Ki [13]: 0.251 µM

SMILES: O=C(/C=C/c1ccccc1)N(Cc1ccc(-c2ccc(CNCc3ccc4c(c3)OCO4)cc2)cc1)Cc1cccnc1
Ki [13]: 1 µM

SMILES: CN(C)CCN(Cc1ccc(-c2ccc(CNCCc3ccccc3)cc2)cc1)C(=O)c1ccccc1
Ki [13]: 0.631 µM

SMILES: CN(C)CCN(Cc1ccc(-c2ccc(CNCCc3ccccc3)cc2)cc1)C(=O)Nc1ccccc1
Ki [13]: 0.398 µM

SMILES: CN(C)CCN(Cc1ccc(-c2ccc(CNCCc3ccccc3)cc2)cc1)C(=O)CCC1CCCC1
pKb [26]: 8

The remaining molecules from weak to strong by Ki [13], led by results:

Ki [13]: 0.2 µM
SMILES: c1ccc(CCNCc2ccc(-c3cccc(CNC4CCN(Cc5ccccc5)CC4)c3)cc2)cc1

Ki [13]: 0.0794 µM
SMILES: CN(C)CCN(Cc1ccc(-c2ccc(CNCCOc3ccccc3)cc2)cc1)C(=O)CCC1CCCC1

Ki [1]: > 2 µM | Ki [2]: 1.58 µM | Ki [3]: > 1 µM | Ki [4]: 1 µM | Ki [5]: 0.316 µM | Ki [6]: 1.58 µM | Ki [7]: 1.26 µM | Ki [8]: 1.26 µM | Ki [9]: > 10 µM | Ki [10]: 1 µM | Ki [11]: 0.631 µM | Ki [12]: 0.794 µM | Ki [13]: 0.0501 µM | Ki [14]: 2 µM | Ki [15]: 1.26 µM
SMILES: O=C(/C=C/c1ccccc1)N(Cc1ccc(-c2ccc(CNCCc3ccccc3)cc2)cc1)Cc1cccnc1

Ki [13]: 0.0316 µM
SMILES: CN(C)CCN(Cc1ccc(-c2ccc(CNCCc3ccccn3)cc2)cc1)C(=O)CCC1CCCC1

Ki [13]: 0.0251 µM
SMILES: CN(C)CCN(Cc1ccc(-c2ccc(CNCCc3ccccc3)cc2)nc1)C(=O)/C=C/c1ccccc1

Ki [1]: > 7.94 µM | Ki [2]: 1 µM | Ki [3]: > 10 µM | Ki [4]: 0.631 µM | Ki [5]: 0.2 µM | Ki [6]: 1.26 µM | Ki [7]: 0.794 µM | Ki [8]: 1 µM | Ki [9]: > 10 µM | Ki [10]: 0.794 µM | Ki [11]: 0.631 µM | Ki [12]: 0.398 µM | Ki [13]: 0.0251 µM | Ki [14]: 1.26 µM | Ki [15]: 0.158 µM
SMILES: CN(C)CCN(Cc1ccc(-c2ccc(CNCCc3ccccc3)cc2)cc1)C(=O)/C=C/c1ccccc1
